We go through 3 molecules from PMC11189382, “Structural basis of connexin-36 gap junction channel inhibition” (Cell Discovery, 2024).

Assay [1] addresses T1, Cx36 (Homo sapiens, UniProt Q9UKL4).
T1 construct: gene GJD2; purified in detergent; gap junction channel of docked hexameric hemichannels
T1 sequence (Q9UKL4 1-321): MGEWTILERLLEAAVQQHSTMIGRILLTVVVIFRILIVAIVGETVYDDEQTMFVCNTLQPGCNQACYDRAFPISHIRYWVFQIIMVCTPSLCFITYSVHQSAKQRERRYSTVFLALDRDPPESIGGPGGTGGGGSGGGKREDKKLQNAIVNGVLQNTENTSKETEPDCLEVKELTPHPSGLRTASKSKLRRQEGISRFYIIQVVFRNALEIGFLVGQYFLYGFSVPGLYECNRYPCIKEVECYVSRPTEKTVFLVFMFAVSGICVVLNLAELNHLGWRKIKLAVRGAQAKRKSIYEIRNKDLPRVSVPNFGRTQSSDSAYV
Kind of assay: cryo-EM structure of the complex. It is filed as binding. The following applies: detergent, pore pocket between TM1 and TM2 at interface of two monomers.

Assay [2] concerns the target T1, Cx36. Kind of assay: ligand binding assay with purified Cx36.

Regarding `C=C[C@H]1CN2CC[C@H]1C[C@@H]2[C@@H](O)c1ccnc2ccc(OC)cc12` [quinidine], the “cryo-EM structure of the complex” value in assay [1] (1 mM drug) is “Cx36–quin, and Cx36–quid feature additional densities, corresponding to six bound drugs per Cx36 hexamer”. In assay [2], the Kd (commonly the concentration at which binding is half-saturated) turned out to be 58 ± 9 µM.

In the case of `C=C[C@H]1CN2CC[C@H]1C[C@H]2[C@H](O)c1ccnc2ccc(OC)cc12` [quinine], the “cryo-EM structure of the complex” value in assay [1] (1 mM drug) is “Cx36–quin, and Cx36–quid feature additional densities, corresponding to six bound drugs per Cx36 hexamer”. Besides, in assay [2], the Kd turned out to be 29 ± 5.3 µM.

As to `OC(c1cc(C(F)(F)F)nc2c(C(F)(F)F)cccc12)C1CCCCN1` (racemic) [mefloquine], the “cryo-EM structure of the complex” value in assay [1] (1 mM racemic drug) was “although we used a racemic mixture of the drug, the high-resolution structure captured the S/R-enantiomer”. In assay [2], this molecule yielded a Kd of 10.4 ± 1.3 µM.
